Data published in patent US20250042894A1, “PROTEIN TYROSINE PHOSPHATASE INHIBITORS AND METHODS OF USE THEREOF” (Calico Life Sciences LLC, priority 2021, published 2025).
Like-named read-outs stand apart in the source and are kept apart here.

Experiments:
[1] = biological target: T1, His tagged full-length PTPN1 protein (Homo sapiens, UniProt P18031); test: Mobility Shift Assay (MSA) for PTPN1 inhibitors; type: biochemical; conditions: enzyme 0.5 nM, substrate 2 μM, 10 minutes preincubation at room temperature
T1 construct: His; made in house
T1 sequence (P18031 1-435): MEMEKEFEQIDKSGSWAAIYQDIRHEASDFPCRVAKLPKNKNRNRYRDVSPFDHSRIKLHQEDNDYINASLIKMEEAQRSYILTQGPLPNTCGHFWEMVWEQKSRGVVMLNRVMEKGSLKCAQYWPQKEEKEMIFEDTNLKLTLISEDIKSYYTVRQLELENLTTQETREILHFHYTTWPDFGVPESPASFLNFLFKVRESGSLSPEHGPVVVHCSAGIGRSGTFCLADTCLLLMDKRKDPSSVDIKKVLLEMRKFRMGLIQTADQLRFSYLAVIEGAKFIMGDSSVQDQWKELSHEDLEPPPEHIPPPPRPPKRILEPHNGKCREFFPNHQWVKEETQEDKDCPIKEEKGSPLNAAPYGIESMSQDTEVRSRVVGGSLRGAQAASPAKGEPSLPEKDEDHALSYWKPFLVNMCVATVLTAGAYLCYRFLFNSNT
Description: Example 44: Mobility Shift Assay (MSA) Used to Determine Potency of PTPN1 Inhibitors
Compound activity was determined using in house His tagged full-length PTPN1 protein (SEQ ID NO: 3) in an in vitro enzymatic reaction. The enzymatic assay used to determine activity is a mobility shift assay using a LabChip EZ Reader by Caliper Life Sciences. The enzymatic reaction was carried out in assay buffer (50 mM HEPES pH 7.5, 1 mM EGTA, 10 mM EDTA, 0.010% Tween® 20, and 2 mM DTT). The compounds were dispensed on a white 384 well ProxiPlate™ (PerkinElmer Cat #6008289) plate using a Labcyte Echo® liquid handler at varying concentrations (12 point, 1:3 dilution). The enzyme (at 0.5 nM) was incubated with compound for 10 minutes at room temperature. Thereafter, the substrate (phosphorylated insulin receptor probe sequence: ((OG488)-(NH—CH2—CH2—O—CH2—CH2—O—CH2—CO)-T-R-D-I—(PY)-E-T-D-Y—Y—R—K—K—NH2) (SEQ ID NO: 2) was added at 2 μM to the plates and incubated for another 10 minutes at room temperature. Finally, a quench solution (water and 4-bromo-3-(2-oxo-2-propoxyethoxy)-5-(3-{[1-(phenylmethanesulfonyl)piperidin-4-yl]amino}phenyl)thiophene-2-carboxylic acid) was added to the plates, which were then run on the EZ Reader (excitation 488 nm, emission 530 nm) to measure % conversion (the amount of phosphorylated substrate which was de-phosphorylated by PTPN1). […] The % inhibition was then used to calculate the IC50 values.

[2] = biological target: T2, His tagged PTPN2 (TC45) protein (Homo sapiens, UniProt P17706); test: Mobility Shift Assay (MSA) for PTPN2 inhibitors; type: biochemical; conditions: for IC50: enzyme 0.5 nM, substrate 2 μM, 10 minutes preincubation at room temperature
T2 construct: His; made in house
T2 sequence (P17706 1-387 isoform P17706-2): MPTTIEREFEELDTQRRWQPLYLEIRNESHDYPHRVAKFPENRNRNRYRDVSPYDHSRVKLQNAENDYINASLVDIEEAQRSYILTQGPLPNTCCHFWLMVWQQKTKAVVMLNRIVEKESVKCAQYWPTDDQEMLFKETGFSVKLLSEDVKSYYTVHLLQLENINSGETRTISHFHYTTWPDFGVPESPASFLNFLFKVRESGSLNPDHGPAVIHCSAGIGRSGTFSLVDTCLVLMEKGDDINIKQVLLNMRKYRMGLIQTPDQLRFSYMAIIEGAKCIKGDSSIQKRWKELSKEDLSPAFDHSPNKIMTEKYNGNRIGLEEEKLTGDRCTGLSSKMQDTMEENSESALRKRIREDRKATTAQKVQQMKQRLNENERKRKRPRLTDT
Description: Example 43: Mobility Shift Assay (MSA) Used to Determine Potency of PTPN2 Inhibitors
Compound activity was determined using in house His tagged PTPN2 (TC45) protein (SEQ ID NO: 1) in an in vitro enzymatic reaction. The enzymatic assay used to determine activity was a mobility shift assay using a LabChip EZ Reader by Caliper Life Sciences. The enzymatic reaction was carried out in assay buffer (50 mM HEPES pH 7.5, 1 mM EGTA, 10 mM EDTA, 0.01% Tween® 20, and 2 mM DTT). The compounds were dispensed on a white 384 well ProxiPlate™ (PerkinElmer Catalog #6008289) plate using the Labcyte Echo at varying concentrations (12 point, 1:3 dilution). The enzyme (at 0.5 nM) was incubated with compound for 10 minutes at room temperature. Thereafter, the substrate (phosphorylated insulin receptor probe sequence: ((OG488)-(NH—CH2—CH2—O—CH2—CH2—O—CH2—CO)-T-R-D-I—(PY)-E-T-D-Y—Y—R—K—K—NH2) (SEQ ID NO: 2) was added at 2 μM to the plates and incubated for another 10 minutes at room temperature. Finally, a quench solution (water and 4-bromo-3-(2-oxo-2-propoxyethoxy)-5-(3-{[1-(phenylmethanesulfonyl)piperidin-4-yl]amino}phenyl)thiophene-2-carboxylic acid) was added to the plates, which were then run on the EZ Reader (excitation 488 nm, emission 530 nm) to measure % conversion (the amount of phosphorylated substrate which was de-phosphorylated by PTPN2). […] The % inhibition was then used to calculate the IC50 values.

[3] = tested on: IFNγ-induced STAT1 phosphorylation (pSTAT1) in B16F10 cells; test: B16F10 Phospho-STAT1 HTRF proximal pharmacodynamic (PD) assay; type: cell-based, murine; conditions: for EC50: B16-F10
Description: Example 45: B16F10 (Murine Melanoma Cells) Phospho-STAT1 HTRF Proximal Pharmacodynamic (PD) Assay
B16F10 cells were grown and maintained in high glucose DMEM (Gibco, Catalog #11965-092, Dun Laoghaire Co Dublin) supplemented with 10% fetal bovine serum (Gibco, Catalog #10082-139, Dun Laoghaire Co Dublin). The cells were pelleted and resuspended in high glucose DMEM without phenol red (Gibco, Catalog #11054-020, Dun Laoghaire Co Dublin), supplemented with 10% fetal bovine serum and plated in a 384 well Corning plate (product #3765, Corning, NY) at 11,000 cells per well in a volume of 20 μL. The cells were dosed with the compounds of interest using an Echo Liquid Handler (Beckman Coulter, Brea, CA) at 50 μM top dose with 3-fold dilutions down to 0.002679 μM for a 10-point dose response. The plate was incubated for 3 hours at 37° C. and subsequently treated with recombinant mouse IFNγ (R&D Systems, Catalog #485-MI, Minneapolis, MN; 100 nM final concentration) for 10 minutes at 37° C. to induce STAT1 phosphorylation followed by 3.3 μM staurosporine treatment for 1 hour at 37° C. to terminate phosphorylation. Media was then aspirated and 20 μL of 1× lysis buffer/blocking reagent (Cisbio Phospho-STAT1 kit, part #63ADK026PEH, Bedford, MA) was added. The plate was placed on a plate shaker for 30 minutes at room temperature, sealed, and stored at −80° C. until needed. To thaw, the plate was placed on shaker at room temperature until completely thawed while the antibody master mix was made (1:40 Phospho-STAT1 Eu Cryptate antibody, 1:40 Phospho-STAT1 d2 antibody, with the detection buffer; Cisbio Phospho-STAT1 kit, part #63ADK026PEH, Bedford, MA). The antibody master mix was then dispensed at 4 μL per well into a 384 ProxiPlate Plus (PerkinElmer, part #6008289, Waltham, MA) and 16 μL of lysate was added from the Corning plate to the Proxiplate using a VIAFLO 384 (INTEGRA). The plate was incubated for 3 hours at room temperature and read on an EnVision® (Perkin Elmer) plate reader with laser excitation at 335 nm and emission at 665 nm. Dotmatics Studies (Bishop's Stortford, UK) was utilized to generate all dose-response curves and calculate EC50s and are shown in Table 2.

[4] = Table 2, 3 hours compound, then mouse IFNγ 100 nM 10 minutes, top dose 50 μM, read-out: B16F10 IFNγ Induced pSTAT1 EC50

SMILES	IC50 [1]	IC50 [2]	EC50 [3, 4]	Thiochromane x-fold>potency biochemical ([2]; Table 3, PTPN2 MSA IC50 of chromane comparator over thiochromane)	EC50 ([3]; Mus musculus, Table 3, B16F10 cells, IFNγ-induced, thiochromanes (X = S) and chromane comparators (X = O), read-out: pSTAT1 EC50)	Thiochromane x-fold>potency cellular ([3]; Table 3, pSTAT1 EC50 of chromane comparator over thiochromane)
CC(CN[C@@H]1CSc2cc(O)c(N3CC(=O)NS3(=O)=O)c(F)c2C1)C1CC1 (stereo partly drawn) [Compound 133, 5-{(3S)-3-[(2-cyclopropylpropyl)amino]-5-fluoro-7-hydroxy-3,4-dihydro-2H-1-benzothiopyran-6-yl}-1λ^6,2,5-thiadiazolidine-1,1,3-trione]	< 10 nM	< 10 nM	762 nM	–	–	–
O=C1CN(c2c(O)cc3c(c2F)C[C@H](NCCCc2ccccc2)CS3)S(=O)(=O)N1 [Compound 136, 5-{(3S)-5-fluoro-7-hydroxy-3-[(3-phenylpropyl)amino]-3,4-dihydro-2H-1-benzothiopyran-6-yl}-1λ^6,2,5-thiadiazolidine-1,1,3-trione]	10 to 100 nM	10 to 100 nM	27600 nM	0.8	27600 nM	>1.8
O=C1CN(c2c(O)cc3c(c2F)C[C@H](NCCCn2cccn2)CS3)S(=O)(=O)N1 [Compound 131, 5-[(3S)-5-fluoro-7-hydroxy-3-{[3-(1H-pyrazol-1-yl)propyl]amino}-3,4-dihydro-2H-1-benzothiopyran-6-yl]-1λ^6,2,5-thiadiazolidine-1,1,3-trione]	> 100 nM	10 to 100 nM	> 50000 nM	–	–	–
CC(C)C(C)CN[C@@H]1CSc2cc(O)c(N3CC(=O)NS3(=O)=O)c(F)c2C1 (stereo partly drawn) [Compound 115, 5-{(3S)-3-[(2,3-dimethylbutyl)amino]-5-fluoro-7-hydroxy-3,4-dihydro-2H-1-benzothiopyran-6-yl}-1λ^6,2,5-thiadiazolidine-1,1,3-trione]	< 10 nM	< 10 nM	1830 nM	–	–	–
CCC(CC)CCN[C@@H]1CSc2cc(O)c(N3CC(=O)NS3(=O)=O)c(F)c2C1 [Compound 119, 5-{(3S)-3-[(3-ethylpentyl)amino]-5-fluoro-7-hydroxy-3,4-dihydro-2H-1-benzothiopyran-6-yl}-1λ^6,2,5-thiadiazolidine-1,1,3-trione]	10 to 100 nM	< 10 nM	6660 nM	–	–	–
CC(CCN[C@@H]1CSc2cc(O)c(N3CC(=O)NS3(=O)=O)c(F)c2C1)c1ccccc1 (stereo partly drawn) [Compound 134, 5-{(3S)-5-fluoro-7-hydroxy-3-[(3-phenylbutyl)amino]-3,4-dihydro-2H-1-benzothiopyran-6-yl}-1λ^6,2,5-thiadiazolidine-1,1,3-trione]	10 to 100 nM	< 10 nM	> 50000 nM	–	–	–
CC(C)CN[C@@H]1CSc2cc(O)c(N3CC(=O)NS3(=O)=O)c(F)c2C1 [Compound 113, 5-{(3S)-5-fluoro-7-hydroxy-3-[(2-methylpropyl)amino]-3,4-dihydro-2H-1-benzothiopyran-6-yl}-1λ^6,2,5-thiadiazolidine-1,1,3-trione]	10 to 100 nM	10 to 100 nM	2030 nM	–	–	–
CCCCN[C@@H]1CSc2cc(O)c(N3CC(=O)NS3(=O)=O)c(F)c2C1 [Compound 112, 5-[(3S)-3-(butylamino)-5-fluoro-7-hydroxy-3,4-dihydro-2H-1-benzothiopyran-6-yl]-1λ^6,2,5-thiadiazolidine-1,1,3-trione]	10 to 100 nM	< 10 nM	1210 nM	–	–	–
CC(C)(CO)CCN[C@@H]1CSc2cc(O)c(N3CC(=O)NS3(=O)=O)c(F)c2C1 [Compound 106, 5-{(3S)-5-fluoro-7-hydroxy-3-[(4-hydroxy-3,3-dimethylbutyl)amino]-3,4-dihydro-2H-1-benzothiopyran-6-yl}-1λ^6,2,5-thiadiazolidine-1,1,3-trione]	10 to 100 nM	< 10 nM	11900 nM	–	–	–
CC(C)N[C@@H]1CSc2cc(O)c(N3CC(=O)NS3(=O)=O)c(F)c2C1 [Compound 116, 5-{(3S)-5-fluoro-7-hydroxy-3-[(propan-2-yl)amino]-3,4-dihydro-2H-1-benzothiopyran-6-yl}-1λ^6,2,5-thiadiazolidine-1,1,3-trione]	> 100 nM	10 to 100 nM	17200 nM	–	–	–
